Data: ChEMBL document CHEMBL3734743, “Potent complement C3a receptor agonists derived from oxazole amino acids: Structure-activity relationships” (Bioorg Med Chem Lett, 2015)
pEC50, pIC50: −log10 of the molar value. Calls of active or inactive are those of the source. The calls are words filed in the database; no cut-off is given here.

Legend:
[1] = target: T1, C5a anaphylatoxin chemotactic receptor 1 (Homo sapiens) (UniProt P21730); test: Displacement of [125I]-C5a from C5aR in human MDM cells at 20 uM after 60 mins by microbeta scintillation counting analysis; type: cell-based
T1 sequence (whole entry): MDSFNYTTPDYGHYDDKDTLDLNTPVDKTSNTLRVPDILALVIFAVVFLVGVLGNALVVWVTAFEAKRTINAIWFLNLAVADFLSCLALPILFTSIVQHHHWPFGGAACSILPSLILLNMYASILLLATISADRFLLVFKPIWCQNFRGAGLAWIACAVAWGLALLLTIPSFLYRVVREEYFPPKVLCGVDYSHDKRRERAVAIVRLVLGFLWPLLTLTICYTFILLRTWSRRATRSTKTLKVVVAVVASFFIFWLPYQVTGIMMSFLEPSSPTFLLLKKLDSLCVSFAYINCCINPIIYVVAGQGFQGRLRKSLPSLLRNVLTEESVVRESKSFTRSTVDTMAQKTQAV

[2] = target: T2, C3a anaphylatoxin chemotactic receptor (Homo sapiens, UniProt Q16581); test: Displacement of [125I]-C3a from C3aR in human MDM cells after 60 mins by microbeta scintillation counting analysis; type: cell-based
T2 sequence (Q16581 whole entry): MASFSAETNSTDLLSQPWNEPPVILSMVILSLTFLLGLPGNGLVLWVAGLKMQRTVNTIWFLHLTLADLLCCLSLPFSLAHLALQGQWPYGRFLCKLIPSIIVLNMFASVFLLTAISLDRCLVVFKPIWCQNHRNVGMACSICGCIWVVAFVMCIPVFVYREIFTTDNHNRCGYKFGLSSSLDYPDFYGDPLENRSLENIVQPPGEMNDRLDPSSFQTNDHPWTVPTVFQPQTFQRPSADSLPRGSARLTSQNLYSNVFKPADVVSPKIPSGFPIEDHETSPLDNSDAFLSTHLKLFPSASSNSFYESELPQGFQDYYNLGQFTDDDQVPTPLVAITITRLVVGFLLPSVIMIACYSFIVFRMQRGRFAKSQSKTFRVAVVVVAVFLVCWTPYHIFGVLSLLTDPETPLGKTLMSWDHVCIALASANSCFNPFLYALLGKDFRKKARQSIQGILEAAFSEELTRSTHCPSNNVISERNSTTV

[3] = target: T3, C3a anaphylatoxin chemotactic receptor (Homo sapiens) (UniProt Q16581); test: Agonist activity at C3aR in human MDM cells assessed as inhibition of C3a-induced Ca2+ response at 10 uM measured for 60 secs by fluorescence assay relative to 100 nM C3a; type: functional, cell-based
T3 sequence (whole entry): T2 sequence (Q16581 whole entry)

[4] = target: T3, C3a anaphylatoxin chemotactic receptor (Homo sapiens); test: Displacement of [125I]-C3a from C3aR in human MDM cells at 20 uM after 60 mins by microbeta scintillation counting analysis; type: cell-based
[5] = target: T3, C3a anaphylatoxin chemotactic receptor (Homo sapiens); test: Agonist activity at C3aR in human MDM cells assessed as intracellular calcium efflux at 1 uM measured for 60 secs by fluorescence based receptor desensitization assay; type: functional, cell-based
[6] = target: T2, C3a anaphylatoxin chemotactic receptor; test: Agonist activity at C3aR in human MDM cells assessed as inhibition of C3a-induced Ca2+ response measured for 60 secs by fluorescence assay; type: functional, cell-based

With `CC[C@H](C)[C@H](NC(=O)c1ccc(OC)cc1OC)c1nc(C(=O)N[C@@H](CCCNC(=N)N)C(=O)O)co1` the inhibition [1] was “inactive” and the pIC50 [2] was 6.06.
In the case of `Cc1oc([C@H](CC(C)C)NC(=O)C2CCCCC2)nc1C(=O)N[C@@H](CCCNC(=N)N)C(=O)O`, the inhibition [1] was “inactive”, the inhibition [3] was 107% and the inhibition [4] was 39%.
In the case of `CC[C@H](C)[C@H](NC(=O)c1ccc(N(C)C)cc1)c1nc(C(=O)N[C@@H](CCCNC(=N)N)C(=O)O)co1`, the inhibition [1] was “inactive” and the pIC50 [2] was 6.10.
For `COc1ccc(OC)c(CC(=O)N[C@@H](CC(C)C)c2nc(C(=O)N[C@@H](CCCNC(=N)N)C(=O)O)c(C)o2)c1`, the inhibition [1] was “inactive”, the inhibition [3] was 69% and the inhibition [4] was 42%.
For `CC(C)C[C@H](NC(=O)Cc1ccc(F)cc1)c1nc(C(=O)N[C@@H](CCCNC(=N)N)C(=O)O)co1`, the inhibition [1] was “inactive”, the pIC50 [2] was 6.99 and the Activity [5] was “inactive”.
With `CC[C@H](C)[C@H](NC(=O)C1(C(C)C)C=CCC=C1)c1nc(C(=O)N[C@@H](CCCNC(=N)N)C(=O)O)co1` the inhibition [1] was “inactive”, the pEC50 [6] was 6.13 and the pIC50 [2] was 6.12.
With `Cc1oc([C@H](CC(C)C)NC(=O)c2ccncc2)nc1C(=O)N[C@@H](CCCNC(=N)N)C(=O)O` the inhibition [1] was “inactive”, the inhibition [3] was 109% and the inhibition [4] was “inactive”.
`COc1ccc(CCC(=O)N[C@@H](CC(C)C)c2nc(C(=O)N[C@@H](CCCNC(=N)N)C(=O)O)c(C)o2)cc1` was tested, and the inhibition [1] was “inactive”, the inhibition [3] was 44% and the inhibition [4] was 44%.
In the case of `CC[C@H](C)[C@H](NC(=O)c1ccc(C(=O)c2ccccc2)cc1)c1nc(C(=O)N[C@@H](CCCNC(=N)N)C(=O)O)co1`, the inhibition [1] was “inactive” and the pIC50 [2] was 6.80.
`CC(C)C[C@H](NC(=O)C1c2ccccc2-c2ccccc21)c1nc(C(=O)N[C@@H](CCCNC(=N)N)C(=O)O)co1` was tested, and the inhibition [1] was “inactive” and the pIC50 [2] was 6.85.
For `COc1cccc(C(=O)N[C@@H](CC(C)C)c2nc(C(=O)N[C@@H](CCCNC(=N)N)C(=O)O)c(C)o2)c1`, the inhibition [1] was “inactive”, the inhibition [3] was 134% and the inhibition [4] was “inactive”.
In the case of `COc1ccccc1CC(=O)N[C@@H](CC(C)C)c1nc(C(=O)N[C@@H](CCCNC(=N)N)C(=O)O)c(C)o1`, the inhibition [1] was “inactive”, the inhibition [3] was 81% and the inhibition [4] was 43%.
For `Cc1oc([C@H](CC(C)C)NC(=O)c2cccnc2)nc1C(=O)N[C@@H](CCCNC(=N)N)C(=O)O`, the inhibition [1] was “inactive”, the inhibition [3] was 68% and the inhibition [4] was 29%.
For `CC[C@H](C)[C@H](NC(=O)c1ccc2ccccc2n1)c1nc(C(=O)N[C@@H](CCCNC(=N)N)C(=O)O)co1`, the inhibition [1] was “inactive”, the pEC50 [6] was 7.39 and the pIC50 [2] was 6.91. The Activity [5] was “inactive”.
`COc1ccc(CC(=O)N[C@@H](CC(C)C)c2nc(C(=O)N[C@@H](CCCNC(=N)N)C(=O)O)c(C)o2)cc1OC` was tested, and the inhibition [1] was “inactive”, the inhibition [3] was 67% and the inhibition [4] was 65%.
With `Cc1oc([C@H](CC(C)C)NC(=O)c2ccccn2)nc1C(=O)N[C@@H](CCCNC(=N)N)C(=O)O` the inhibition [1] was “inactive”, the inhibition [3] was 77% and the inhibition [4] was 31%.
With `Cc1oc([C@H](CC(C)C)NC(=O)NCc2ccccc2)nc1C(=O)N[C@@H](CCCNC(=N)N)C(=O)O` the inhibition [1] was “inactive”, the inhibition [3] was 50% and the inhibition [4] was 61%.
`Cc1oc([C@H](CC(C)C)NC(=O)c2cc3ccccc3o2)nc1C(=O)N[C@@H](CCCNC(=N)N)C(=O)O` was tested, and the inhibition [1] was “inactive”, the inhibition [3] was 84% and the inhibition [4] was 19%.
For `CC[C@H](C)[C@H](NC(=O)c1cccc(OC)c1OC)c1nc(C(=O)N[C@@H](CCCNC(=N)N)C(=O)O)co1`, the inhibition [1] was “inactive” and the pIC50 [2] was 6.15.
For `COc1cccc(CC(=O)N[C@@H](CC(C)C)c2nc(C(=O)N[C@@H](CCCNC(=N)N)C(=O)O)c(C)o2)c1`, the inhibition [1] was “inactive”, the inhibition [3] was 87% and the inhibition [4] was 41%.
For `Cc1oc([C@H](CC(C)C)NC(=O)c2cc3ccccc3[nH]2)nc1C(=O)N[C@@H](CCCNC(=N)N)C(=O)O`, the inhibition [1] was “inactive”, the inhibition [3] was 56% and the inhibition [4] was 26%.
For `Cc1oc([C@H](CC(C)C)NC(=O)CC(C)(C)C)nc1C(=O)N[C@@H](CCCNC(=N)N)C(=O)O`, the inhibition [1] was “inactive”, the inhibition [3] was 70% and the inhibition [4] was 44%.
`CC(C)C[C@H](NC(=O)C(C)c1ccc(N2Cc3ccccc3C2=O)cc1)c1nc(C(=O)N[C@@H](CCCNC(=N)N)C(=O)O)co1` (stereo not given in full) was tested, and the inhibition [1] was “inactive” and the pIC50 [2] was 6.35.
In the case of `CC[C@H](C)[C@H](NC(=O)c1ccccc1)c1nc(C(=O)N[C@@H](CCCNC(=N)N)C(=O)O)co1`, the inhibition [1] was “inactive” and the pIC50 [2] was 7.57.
In the case of `Cc1ccc(NC(=O)N[C@@H](CC(C)C)c2nc(C(=O)N[C@@H](CCCNC(=N)N)C(=O)O)c(C)o2)cc1`, the inhibition [3] was 64% and the inhibition [4] was “inactive”.
`Cc1oc([C@H](CC(C)C)NC(=O)CC2CCCCC2)nc1C(=O)N[C@@H](CCCNC(=N)N)C(=O)O` was tested, and the inhibition [1] was “inactive”, the inhibition [3] was 69% and the inhibition [4] was 26%.
With `CC[C@H](C)[C@H](NC(=O)OC(C)(C)C)c1nc(C(=O)N[C@@H](CCCNC(=N)N)C(=O)O)co1` the inhibition [1] was “inactive” and the Activity [5] was “inactive”.
`Cc1oc([C@H](CC(C)C)NC(=O)c2ccc(/N=N/c3ccccc3)cc2)nc1C(=O)N[C@@H](CCCNC(=N)N)C(=O)O` was tested, and the inhibition [1] was “inactive”, the inhibition [3] was 48% and the inhibition [4] was 49%.
With `CC[C@H](C)[C@H](NC(=O)c1cncc(Br)c1)c1nc(C(=O)N[C@@H](CCCNC(=N)N)C(=O)O)co1` the inhibition [1] was “inactive”, the pIC50 [2] was 8.30 and the Activity [5] was “inactive”.
`CC[C@H](C)[C@H](NC(=O)c1ccccc1Oc1ccccc1)c1nc(C(=O)N[C@@H](CCCNC(=N)N)C(=O)O)co1` was tested, and the inhibition [1] was “inactive”, the pIC50 [2] was 7.26 and the Activity [5] was “Active”.
`Cc1oc([C@H](CC(C)C)NC(=O)c2ccc(Oc3ccccc3)cc2)nc1C(=O)N[C@@H](CCCNC(=N)N)C(=O)O` was tested, and the inhibition [1] was “inactive”, the inhibition [3] was 68% and the inhibition [4] was 32%.
With `Cc1oc([C@H](CC(C)C)NC(=O)S(=O)(=O)c2ccccc2)nc1C(=O)N[C@@H](CCCNC(=N)N)C(=O)O` the inhibition [1] was “inactive”, the inhibition [3] was 103% and the inhibition [4] was 44%.
`CC[C@H](C)[C@H](NC(=O)CCC(=O)c1ccc(-c2ccccc2)cc1)c1nc(C(=O)N[C@@H](CCCNC(=N)N)C(=O)O)co1` was tested, and the inhibition [1] was “inactive”, the pIC50 [2] was 6.82 and the Activity [5] was “inactive”.
With `CC[C@H](C)[C@H](NC(=O)C1CCCc2ccccc21)c1nc(C(=O)N[C@@H](CCCNC(=N)N)C(=O)O)co1` (stereo not given in full) the inhibition [1] was “inactive” and the pIC50 [2] was 6.98.
`Cc1oc([C@H](CC(C)C)NC(=O)c2cc3ccccc3s2)nc1C(=O)N[C@@H](CCCNC(=N)N)C(=O)O` was tested, and the inhibition [1] was “inactive”, the inhibition [3] was 62% and the inhibition [4] was 14%.
For `Cc1oc([C@H](CC(C)C)NC(=O)CCC(C)C)nc1C(=O)N[C@@H](CCCNC(=N)N)C(=O)O`, the inhibition [1] was “inactive”, the inhibition [3] was 95% and the inhibition [4] was “inactive”.
In the case of `CC[C@H](C)[C@H](NC(=O)C(c1ccccc1)c1ccccc1)c1nc(C(=O)N[C@@H](CCCNC(=N)N)C(=O)O)co1`, the inhibition [1] was “inactive” and the pIC50 [2] was 6.86.
`COc1ccc(CC(=O)N[C@@H](CC(C)C)c2nc(C(=O)N[C@@H](CCCNC(=N)N)C(=O)O)c(C)o2)cc1` was tested, and the inhibition [1] was “inactive”, the inhibition [3] was 26% and the inhibition [4] was 40%.
With `CC[C@H](C)[C@H](NC(=O)C(C)c1ccc2cc(OC)ccc2c1)c1nc(C(=O)N[C@@H](CCCNC(=N)N)C(=O)O)co1` (stereo not given in full) the inhibition [1] was “inactive”.
For `CC(C)Cc1ccc(C(C)C(=O)N[C@@H](CC(C)C)c2nc(C(=O)N[C@@H](CCCNC(=N)N)C(=O)O)co2)cc1` (stereo not given in full), the inhibition [1] was “inactive” and the pIC50 [2] was 5.99.
With `Cc1oc([C@H](CC(C)C)NC(=O)c2ccc(C(F)(F)F)cc2)nc1C(=O)N[C@@H](CCCNC(=N)N)C(=O)O` the inhibition [1] was “inactive”, the inhibition [3] was 50% and the inhibition [4] was 61%.
With `CC[C@H](C)[C@H](NC(=O)Cc1c[nH]c2ccccc12)c1nc(C(=O)N[C@@H](CCCNC(=N)N)C(=O)O)co1` the inhibition [1] was “inactive” and the pIC50 [2] was 6.82.
For `Cc1oc([C@H](CC(C)C)NC(=O)c2cncc(Br)c2)nc1C(=O)N[C@@H](CCCNC(=N)N)C(=O)O`, the inhibition [1] was “inactive”, the inhibition [3] was 105% and the inhibition [4] was “inactive”.
